# “Also recorded” adds a separate entry of the source.
# How the values were obtained:
# [1] = test system: retinoic acid receptor (RAR); experiment: Activation of retinoic acid response element (RARE) / RAR; assay type: cell-based; conditions: FIGS. 1A-B, 7 and 8
# Source text: FIG. 7 is a histogram showing the activation of retinoic acid response element (RARE) by all-trans-retinol (ROL), (13R)-all-trans-13,14-dihydroretinol (DROL R) and (13S)-all-trans-13,14-dihydroretinol (DROL S);
# FIG. 8 is a histogram showing the activation of retinoic acid response element (RARE) by all-trans-retinoic acid (RA), (13R)-all-trans-13,14-dihydroretinoic acid (DRA R) and (13S)-all-trans-13,14-dihydroretinoic acid (DRA S); and
# The at least one receptor may also include a retinoic acid receptor (RAR), such as RAR-α, RAR-β and RAR-γ which, when activated, translocates to a cell nucleus, binds to hormone response element on DNA, and elicits expression or transexpresssion of gene products. Alternatively, at least one response element, such as the RAR response element (RARE), can be activated.
# wild type mice = experiment: Injection in wild type mice, glycemia; assay type: in vivo
# [2] = biological target: T1, G-protein-coupled receptor 40 (GPR40) (Homo sapiens, UniProt O14842); experiment: Calcium responses of GPR40-expressing cells (receptor screening); assay type: cell-based; conditions: calcium responses of GPR40 and Ga16 cells, FIGS. 1A-B
# T1 construct: expressed in transfected cells; host or cells: GPR40-expressing recombinant cells
# T1 sequence (O14842 whole entry, species assumed): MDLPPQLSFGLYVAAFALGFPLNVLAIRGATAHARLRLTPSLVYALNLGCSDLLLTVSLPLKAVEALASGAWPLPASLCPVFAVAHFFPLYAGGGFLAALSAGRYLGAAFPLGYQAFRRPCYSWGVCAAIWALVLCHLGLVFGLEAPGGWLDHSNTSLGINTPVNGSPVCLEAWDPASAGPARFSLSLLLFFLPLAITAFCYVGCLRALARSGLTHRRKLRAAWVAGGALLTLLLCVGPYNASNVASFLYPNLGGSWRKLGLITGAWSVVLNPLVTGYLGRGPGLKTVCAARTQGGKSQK
# Description: FIGS. 1A-B are a series of histographs showing the screening of potential receptors for all-trans-13,14-dihydroretinoic acid. FIG. 1A is a histogram showing calcium responses of G-protein-coupled receptor 40 and Ga16 cells to 100 μM fatty acids and retinoic acids. FIG. 2A is a histogram showing calcium responses to retinoic acid compounds at 10 μM;
# The activation of GPR40 by all-trans-13,14-dihydroretinoic acid is studied in vitro by measuring the calcium flux and internalization of GPR40 in response to all-trans-13,14-dihydroretinoic in GPR40-expressing recombinant cells. In collaboration with Dr. de Lera University of Vigo, Spain, we have produced synthetic enantiomerically pure (R) or (S) all-trans-13,14-dihydroretinol and all-trans-13,14-dihydroretinoic acid and we have determined the stereospecificity of the RetSat catalyzed reaction. Activation of GPR40 by all-trans-13,14-dihydroretinoic acid leading to secretion of insulin is studied by measuring the level of secreted insulin from INS-1 insulinoma cells or from primary pancreatic β-cells primed with all-trans-13,14-dihydroretinoic acid.
# [3] = biological target: retinol binding protein 4 (RBP4) (Homo sapiens, UniProt P02753); experiment: Binding to RBP4 by fluorescence quenching; conditions: FIG. 9
# Source text: FIG. 9 is a series of graphs showing the binding of (R)-all-trans-13,14-dihydroretinol and (S)-all-trans-13,14-dihydroretinol to RBP4, as determined by fluorescence quenching.
# In another aspect of the present invention, the marker corresponding to the level and/or activity of an all-trans-retinol:all-trans-13,14-dihydroretinol saturase polypeptide may comprise a metabolite, such as a retinoid, associated with all-trans-retinol:all-trans-13,14-dihydroretinol saturase activity. The marker can include, for example, a retinoid having a saturated C13-14 double bond. More particularly, the retinoid having a saturated C13-14 double bond can include all-trans-13,14-dihydroretinol and/or all-trans-13,14-dihydrotretinoic acid. […] Increased levels of RBP4 are associated with the metabolic syndrome, diabetic disease and correlate with increased insulin resistance, obesity and visceral adiposity. Various techniques known in the art may be used to detect dihydroretinoid metabolite levels in a tissue sample, including, but not limited to, chromatography-based methods, electrophoresis and sedimentation, mass spectroscopy, and/or antibody-based methods. […]
Compound,activation of retinoic acid receptor (RAR/RARE) [1],effect on blood glucose after injection (wild type mice),activation of GPR40 [2],binding to RBP4 [3]
"CC1=C(/C=C/C(C)=C/C=C/C(C)CCO)C(C)(C)CCC1 (stereo not drawn) [all-trans-13,14-dihydroretinol]",–,prolonged hypoglycemia,–,–
"CC1=C(/C=C/C(C)=C/C=C/[C@H](C)CC(=O)O)C(C)(C)CCC1 (stereo in doubt) [(R)-all-trans-13,14-dihydroretinoic acid]",can activate RAR,–,–,–

# More lines, main results first:
activation of retinoic acid receptor (RAR/RARE) [1],Compound,effect on blood glucose after injection (wild type mice),activation of GPR40 [2],binding to RBP4 [3]
can activate RAR,"CC1=C(/C=C/C(C)=C/C=C/[C@@H](C)CC(=O)O)C(C)(C)CCC1 (stereo in doubt) [(S)-all-trans-13,14-dihydroretinoic acid]",–,–,–
activator,"CC1=C(/C=C/C(C)=C/C=C/C(C)CC(=O)O)C(C)(C)CCC1 (stereo not drawn) [all-trans-13,14-dihydroretinoic acid]",–,"activator; also recorded: can be activated by all-trans-13,14-dihydroretinoic acid",–
can also activate RAR,"CC1=C(/C=C/C(C)=C/C=C/[C@H](C)CCO)C(C)(C)CCC1 [(R)-all-trans-13,14-dihydroretinol, (13R)-13,14-Dihydroretinol]",–,–,associated with the carrier protein retinol binding protein 4 (RBP4)
can also activate RAR,"CC1=C(/C=C/C(C)=C/C=C/[C@@H](C)CCO)C(C)(C)CCC1 [(S)-all-trans-13,14-dihydroretinol, (13S)-13,14-Dihydroretinol]",–,–,associated with the carrier protein retinol binding protein 4 (RBP4)

# Reference: patent US8889660B2, “Methods for treating obesity or an obesity related condition” (Case Western Reserve University, priority 2010, dated 2014)
